Test results as given in patent US20230212638A1 (priority 2020, published 2023).

Tests used:
Type in all cases: cell-based
[1] = test system: NBRC12993 (Staphylococcus epidermidis control strain); assay: Drug sensitivity of Staphylococcus epidermidis NBRC12993 by resonance frequency shift on GHz array sensor; details: PIPC 10.0 μg/mL
Description: By using NBRC12993 being a control strain of Staphylococcus epidermidis, the inventors conducted verification experiments of growth and drug sensitivity of Staphylococcus epidermidis by the test method above.
In this experiment, piperacillin (penicillin) being a time-dependent drug was used. That is, this drug exerts an inhibitory action on growth by retaining the effective drug concentration for a certain period of time. A control sample of NBRC12993 was mixed with piperacillin (PIPC) to prepare a sample for drug sensitivity evaluation at a […] concentration of 10.0 μg/mL (PIPC 10.0 μg/mL). Further, in order to verify the frequency shift of a killed bacterium, a sample was prepared by subjecting 200 μL of a control sample to heat treatment at 98° C. for 30 minutes.
The samples thus prepared were introduced into different containers 60, respectively, and the frequency shift was measured for each sample. In this case, capping solvent 300 was not added into each container 60. The temperatures of an incubator and a Peltier element during the measurement were set in a similar manner to Example 1 above. In analysis processing, frequency shifts of all the 1488 elements on array sensor 10 were measured every 10 seconds, the average value of the measured frequency shifts was calculated every 5 minutes, and extracted as the frequency shift at each timing of the measurement. In addition to this, in Example 3, a region where the growth of Staphylococcus epidermidis was observed was designated on the display image, and the average value of the frequency shifts in this growth region was calculated every 5 minutes. […]
Further, FIG. 12(b) is a display image showing a frequency shift of each element by color when a control sample to which PIPC was not added was measured at the time point after the lapse of 240 minutes, and FIG. 12(c) is a display image showing a frequency shift of each element by color when a sample for drug sensitivity evaluation to which PIPC was added (PIPC 10.0 μg/mL) was measured at the time point after the lapse of 240 minutes. […]

[2] = test system: BCG (Mycobacterium bovis); details: SM sample: 196 μL control sample + 4 μL SM at 25 mg/mL; 20 elements; 12 hours; 37° C.; FIG. 10(b)
[3] = test system: NBRC3301 (Escherichia coli control strain); assay: Drug sensitivity of Escherichia coli NBRC3301 by resonance frequency shift on GHz array sensor
Method: By using NBRC3301 as a control strain of Escherichia coli, the inventors conducted verification experiments of growth and drug sensitivity of Escherichia coli by the test method above.
In this experiment, streptomycin (aminoglycoside) being a concentration-dependent drug was used. 196 μL of a control sample of NBRC3301 was mixed with 4 μL of SM at a concentration of 25 mg/mL to prepare a sample for drug sensitivity evaluation at a SM concentration of 500 μg/mL (SM_500 μg/mL). Further, the amount of the SM to be added to the control sample was adjusted to prepare a sample for drug sensitivity evaluation at a SM concentration of 250 μg/mL (SM_250 μg/mL) and a sample for drug sensitivity evaluation at a SM concentration of 125 μg/mL (SM_125 μg/mL). Furthermore, in order to verify the frequency shift of a killed bacterium, a sample was prepared by subjecting 200 μL of a control sample to heat treatment at 98° C. for 30 minutes. […]
The samples thus prepared were introduced into different containers 60, respectively, and the frequency shift was measured for each sample. […] In analysis processing, frequency shifts of all the 1488 elements on array sensor 10 were measured every 10 seconds, the average value of the measured frequency shifts was calculated every 5 minutes, and extracted as the frequency shift at each timing of the measurement. […]

## CCN1CCN(C(=O)N[C@@H](C(=O)N[C@@H]2C(=O)N3[C@@H]2SC(C)(C)[C@@H]3C(=O)O)c2ccccc2)C(=O)C1=O [PIPC, piperacillin]
[1]; 240 minutes, no capping solvent, compared with heat-treated killed bacteria, FIG. 12(a)
  increase in the frequency shift with the lapse of time: the increase in the frequency shift was suppressed more than that in the case where heat treatment was performed
[1]; FIG. 12(a)
  time from start of measurement until which the frequency shift increased, decreasing trend thereafter (time-dependent action): around 120 minutes
[1]; after the lapse of 240 minutes, FIG. 12(c)
  frequency shift of each element in display image: the frequency shifts of all the elements were uniformly suppressed low

## [H]/N=C(/N)N[C@H]1[C@H](O)[C@@H](O)[C@H](O[C@@H]2O[C@@H](C)[C@](O)(C=O)[C@H]2O[C@@H]2O[C@@H](CO)[C@H](O)[C@@H](O)[C@@H]2NC)[C@@H](N/C(N)=N\[H])[C@@H]1O [SM, streptomycin]
[2]
  growth of BCG reflected on the frequency shift of each element: growth of BCG was suppressed
[3]; SM 500 μg/mL, after the lapse of 60 minutes, FIG. 11(c)
  frequency shift of each element in display image: the frequency shifts of all the elements were uniformly suppressed low
[3]; SM 500, 250 and 125 μg/mL, average of all 1488 elements, 60 minutes, no capping solvent, suppression greater at higher concentration, FIG. 11(a)
  increase in the frequency shift with the lapse of time, compared with control sample: the increase in the frequency shift was suppressed
